Among the data in patent US5190946A, “Methods and compounds” (Hoffmann-La Roche Inc., priority 1990, dated 1993) are LD50 and IC50 values, retold here.

SMILES strings stand for the structures. Where a name gives a salt, the structure may show the parent alone. Read-outs that look alike come from different tables or passages of the source.

Data set [1] is described as follows: toxicity, LD50 i.p. after administration of a single dose to mice. Conditions: mouse, in vivo, ip, read-out: T: toxicity, LD50. The source says: For some of these compounds, the Table also contains toxicity data ("T", LD50, mg/kg i.p. after administration of a single dose to mice).
For data set [2], the system named is adriamycin-resistant subline (P388/ADR). The experiment in a line: inhibition of growth rate of adriamycin-resistant subline P388/ADR. Format: cell-based, murine. Conditions: P388/ADR cells, compound alone, read-out: B: IC50 for the adriamycin-resistant subline (P388/ADR). The source says:
Such cancer cells are characterized by the fact that they are resistant to a large variety of anti-tumour agents and thus become extremely and increasingly difficult to treat. The compounds of formula I, including those described in British Patent Specification No. 883013, and salts thereof lower this resistance and thus greatly increase the effectiveness of drugs conventionally used in chemotherapy. Such properties can be tested according to the method described in Br. J. […] The Table which follows sets forth for a representative number of compounds of formula I B: the IC50 for the adriamycin-resistant subline (P388/ADR); and […]

Data set [3] deals with P388 murine leukemia cells. As to the kind of experiment: inhibition of growth rate of P388 cells. Format: cell-based. Conditions: Mus musculus. From the text: (§1) Such cancer cells are characterized by the fact that they are resistant to a large variety of anti-tumour agents and thus become extremely and increasingly difficult to treat. […] Such properties can be tested according to the method described in Br. J.

The subject of data set [4] is P388/ADR cells. As to the kind of experiment: inhibition of P388/ADR cells in the presence of a subtoxic concentration of adriamycin (restoring drug sensitivity). Format: cell-based, murine. The settings on record: Mus musculus.
Source text: as §1

The mark [5] stands for this setting: P388, read-out: A: concentration for inhibiting the growth rate of P388 cells by 50% (IC50), P388 cells, compound alone.
[6] abbreviates: P388/ADR, read-out: C: IC50 for P388/ADR cells, measured in the presence of a subtoxic concentration of adriamycin, P388/ADR cells, with adriamycin 0.2 μM.
Setting [7] is: P388 cells, compound alone, read-out: A: concentration for inhibiting the growth rate of P388 cells by 50% (IC50).
Setting [8] is: P388/ADR cells, with adriamycin 0.2 μM, read-out: C: IC50 for P388/ADR cells, measured in the presence of a subtoxic concentration of adriamycin.

Regarding `CCC(C(=O)OCCN1CCN(CCOC(=O)C(CC)c2ccccc2)CC1)c1ccccc1.Cl.Cl` (centres unmarked) [Compound 480, N,N'-bis[2-(2-phenyl-2-ethylacetoxy)ethyl]piperazine dihydrochloride], the LD50 (as a rule, the dose expected to kill half of the subjects tested) in data set [1] fell in the range of 100 to 200 mg/kg. Also, the IC50 stood at 60 µM in data set [2] (Mus musculus, P388/ADR) and 45 µM in data set [2] (dihydrochloride).

In the case of `CCC(C(=O)OCCN1CCN(CCC(=O)Nc2c(C)cccc2C)CC1)c1ccccc1` (centres unmarked) [Compound 1774, 3-[1-(2-Phenyl-2-ethylacetoxy)ethyl-4-piperazino]propion-2,6-dimethylanilide dihydrochloride], the LD50 in data set [1] was around 200 mg/kg. Besides, the IC50 in data set [2] (Mus musculus, P388/ADR) was above 60 µM; in data set [3] (setting [5]), above 60 µM; in data set [4] (setting [6]) it was 1.2 µM.

Regarding `CCC(C(=O)OCCN1CCN(CCOC(=O)C(CC)c2ccccc2F)CC1)c1ccccc1F` (centres unmarked) [Compound 1775, N,N'-bis[2-[2-(2-fluorophenyl)-2-ethylacetoxy]ethyl]piperazine dihydrochloride], the IC50 in data set [2] (Mus musculus, P388/ADR) came to 60 µM; in data set [3] (setting [7]), 60 µM; in data set [4] (setting [8]), 1.5 µM.

As to `CCC(C(=O)OCCN1CCN(CCOC(=O)C(CC)c2ccccc2C)CC1)c1ccccc1C.Cl.Cl` (centres unmarked) [Compound 1776, N,N'-bis[2-[2-(2-methylphenyl)-2-ethylacetoxy]ethyl]piperazine dihydrochloride], in data set [1], the LD50 lay in the range of 200 to 400 mg/kg. For the same compound, the IC50 came to 30 µM in data set [2] (Mus musculus, P388/ADR); 30 µM in data set [3] (setting [5]); 0.8 µM in data set [4] (setting [6]).

Consider `CCC(C(=O)OCCN1CCN(CCOC(=O)C(CC)c2ccc(F)cc2)CC1)c1ccc(F)cc1` (centres unmarked) [Compound 1777, N,N'-bis[2-[2-(4-fluorophenyl)-2-ethylacetoxy]ethyl]piperazine dihydrochloride], for which the IC50 in data set [2] (Mus musculus, P388/ADR) came to 60 µM; in data set [3] (setting [7]), 60 µM; in data set [4] (setting [8]) it was 1.2 µM.

Turning to `CCC(C(=O)OCCN1CCN(CCOC(=O)C(CC)c2ccc(Cl)cc2)CC1)c1ccc(Cl)cc1` (centres unmarked) [Compound 1778, N,N'-bis[2-[2-(4-chlorophenyl)-2-ethylacetoxy]ethyl]piperazine dihydrochloride], the IC50 was determined as 20 µM in data set [2] (Mus musculus, P388/ADR); 30 µM in data set [3] (setting [7]); 1 µM in data set [4] (setting [8]).

Turning to `CCC(C(=O)OCCN1CCN(CCOC(=O)C(CC)c2ccccc2Cl)CC1)c1ccccc1Cl` (centres unmarked) [Compound 1779, N,N'-bis[2-[2-(2-chlorophenyl)-2-ethylacetoxy]ethyl]piperazine dihydrochloride], the IC50 worked out at 40 µM in data set [2] (Mus musculus, P388/ADR); 60 µM in data set [3] (setting [7]); 1 µM in data set [4] (setting [8]).

As for `CCC(C(=O)OCCN1CCN(CCOC(=O)C(CC)c2ccc(OC)c(OC)c2)CC1)c1ccc(OC)c(OC)c1.Cl.Cl` (centres unmarked) [Compound 1835, N,N'-bis[2-[2-(3,4-dimethoxyphenyl)-2-ethylacetoxy]ethyl]piperazine dihydrochloride], the LD50 in data set [1] is around 200 mg/kg. Moreover, the IC50 in data set [2] (Mus musculus, P388/ADR) is 120 µM; in data set [3] (setting [5]), 120 µM; in data set [4] (setting [6]), 1.2 µM.

As for `CCCC(C(=O)OCCN1CCN(CCOC(=O)C(CCC)c2ccccc2)CC1)c1ccccc1` (centres unmarked) [Compound 1838, N,N'-bis[2-(2-n-propyl-2-phenylacetoxy)ethyl]piperazine], the LD50 in data set [1] fell in the range of 200 to 400 mg/kg. For the same compound, the IC50 in data set [2] (Mus musculus, P388/ADR) turned out to be 20 µM; in data set [3] (setting [5]) it was 20 µM; in data set [4] (setting [6]), 0.2 µM.

As to `O=C(OCCN1CCN(CCOC(=O)C(c2ccccc2)c2ccccc2)CC1)C(c1ccccc1)c1ccccc1` [Compound 1839, N,N'-bis(2-diphenylacetoxyethyl)piperazine], the LD50 in data set [1] is 200 to 400 mg/kg. In addition, the IC50 was above 60 µM in data set [2] (Mus musculus, P388/ADR); above 60 µM in data set [3] (setting [5]); 0.2 µM in data set [4] (setting [6]).

Consider `CCC(C(=O)OCCCN1CCN(CCCOC(=O)C(CC)c2ccccc2)CC1)c1ccccc1` (centres unmarked) [Compound 1843, N,N'-bis[3-(2-phenyl-2-ethylacetoxy)propyl]piperazine], for which the IC50 was 8 µM in data set [2] (Mus musculus, P388/ADR); 7 µM in data set [3] (setting [7]); 0.45 µM in data set [4] (setting [8]).

Turning to `CCCCC(C(=O)OCCN1CCN(CCOC(=O)C(CCCC)c2ccc(OC)c(OC)c2)CC1)c1ccc(OC)c(OC)c1` (centres unmarked) [Compound 1849, N,N'-bis[2-[2-n-butyl-2-(3,4-dimethoxyphenyl)acetoxy]ethyl]piperazine dihydrochloride], the IC50 is 10 µM in data set [2] (Mus musculus, P388/ADR); 12 µM in data set [3] (setting [7]); 0.2 µM in data set [4] (setting [8]).

As to `CCCC(C(=O)OCCN1CCN(CCOC(=O)C(CCC)c2ccc(OC)c(OC)c2)CC1)c1ccc(OC)c(OC)c1` (centres unmarked) [Compound 1850, N,N'-bis[2-[2-(3,4-dimethoxyphenyl)-2-propylacetoxy]ethyl]piperazine dihydrochloride], the IC50 came out at 20 µM in data set [2] (Mus musculus, P388/ADR); 20 µM in data set [3] (setting [7]); 0.2 µM in data set [4] (setting [8]).

Take `Cc1cccc(C)c1NC(=O)CCN1CCN(CCOC(=O)C(c2ccccc2)c2ccccc2)CC1` [Compound 1853, 3-[1-(2-diphenylacetoxyethyl)-4-piperazino]propion-2,6-dimethylanilide dihydrochloride]: the IC50 in data set [2] (Mus musculus, P388/ADR) is 60 µM; in data set [3] (setting [7]), 60 µM; in data set [4] (setting [8]), 1.2 µM.

Take `CC(C(=O)OCCN1CCN(CCOC(=O)C(C)(c2ccccc2)c2ccccc2)CC1)(c1ccccc1)c1ccccc1` [Compound 1854, N,N'-bis[2-(2,2-diphenyl-2-methylacetoxy)ethyl]piperazine dihydrochloride]: the IC50 in data set [2] (Mus musculus, P388/ADR) is 45 µM; in data set [3] (setting [7]), 20 µM; in data set [4] (setting [8]), 0.2 µM.
